One experiment deals with T1, horse spleen apoferritin (Equus caballus, UniProt P02791).
T1 sequence (P02791 2-175 limits assumed): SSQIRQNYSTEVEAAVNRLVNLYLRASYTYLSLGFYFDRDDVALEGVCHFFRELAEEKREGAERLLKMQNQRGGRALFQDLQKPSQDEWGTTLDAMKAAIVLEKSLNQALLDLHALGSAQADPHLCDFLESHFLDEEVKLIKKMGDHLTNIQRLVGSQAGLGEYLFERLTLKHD
Briefly: 1-AMA/apoferritin fluorescence competition assay, qHTS in 1,536-well format. As to conditions: for inhibition at 77 µM: read-out: inhibition at maximal concentrations in qHTS. The format is binding. As to the method: The previously-reported apoferritin-1-AMA binding assay was miniaturized to 3 µL in 1,536-well plates.
Throughout the screen, reagent bottles and all liquid lines were made light-tight to minimize reagent degradation. Activity was computed as the normalized fluorescence response relative to free 1-AMA and 1-AMA/apoferritin complex values. Concentration–effect relationships were derived by using publicly-available curve-fitting algorithms developed in-house (http://ncgc.nih.gov/pub/openhts/). A four parameter Hill equation was fitted to the concentration-response data by minimizing the residual error between the modeled and observed responses.
For orientation: qHTS replaces the single test concentration by a dilution series.

The next experiment has as its target T2, apoferritin (Equus caballus, UniProt P02791).
T2 sequence (P02791 2-175 limits assumed): T1 sequence (P02791 2-175 limits assumed)
Briefly: Isothermal titration calorimetry (ITC) of compound into apoferritin. As to conditions: for ITC evidence of binding (in words): enthalpogram. For orientation: In ITC the heat of successive injections is recorded.

Setting [1] is: computed directly from 1-AMA inhibition data, infinite value fixed to -70%, seven concentrations 77 µM to 25 nM, read-out: qHTS IC50.

Entries after “also recorded” stand apart in the source; their conditions may differ. Where a name gives a salt, the structure may show the parent alone. Read-outs that look alike come from different tables or passages of the source.

With `CC(N)c1cccc(Cl)c1Cl` (racemic) [D-103, (±)-2,3-Dichloro-alpha-methylbenzylamine hydrochloride], the IC50 – broadly, the point on the concentration scale where inhibition reaches its midpoint – on horse spleen apoferritin (setting [1]) amounted to 94 µM. Moreover, binding on apoferritin was characterised by a dissociation constant (Kd) of 506 µM.
As for `CCOC(=O)C(C)(C)Oc1ccc(Cl)cc1` [C-6643, Clofibrate], the half-maximal inhibitory concentration (IC50) at horse spleen apoferritin (setting [1]) came out at 105 µM. Also, the dissociation constant Kd (usually the concentration at which binding is half-saturated) on apoferritin worked out at 11.5 µM.
On to `O=c1oc(Cl)c(Cl)c2ccccc12` [D-7910, 3,4-Dichloroisocoumarin], for which, on horse spleen apoferritin (setting [1]), the IC50 stood at 129 µM.
Compound `CC(C)c1cccc(C(C)C)c1O` [D-126608, 2,6-diisopropylphenol (propofol)] showed a 50% inhibitory concentration (IC50) at horse spleen apoferritin of 67 µM. For the same compound, at horse spleen apoferritin (LOPAC1280 screen with filters), the “qHTS screen outcome (in words)” value is “successfully identified in this screen”. Besides, the dissociation constant (Kd) on apoferritin turned out to be 5 µM.
On to `CC1(C)CCC2=C(O1)c1ccccc1C(=O)C2=O` [L-2037, β-Lapachone], for which, on horse spleen apoferritin (setting [1]), the concentration for half-maximal inhibition (IC50) was determined as 33 µM.
`c1ccc([C@H]2CN3CCSC3=N2)cc1` [L-9756, (-)-Tetramisole hydrochloride]: the IC50 at horse spleen apoferritin (setting [1]) worked out at 194 µM. At apoferritin, this compound came in with a Kd of 233 µM.
As for `C#CCN(C)C(C)Cc1ccccc1` (stereo not drawn) [M-003, R-(-)-Deprenyl hydrochloride], the IC50 on horse spleen apoferritin came to 100 µM. This compound also yielded a Kd at apoferritin of 74 µM.
As for `Cc1cccc(C#Cc2ccccc2)n1` [M-5435, 6-Methyl-2-(phenylethynyl)pyridine], the IC50 at horse spleen apoferritin (setting [1]) is 152 µM. Further, binding on apoferritin was characterised by a dissociation constant (Kd) of 313 µM.
`CN(N=O)c1ccc(O)c(O)c1` [M-9440, Methyl-3,4-dephostatin] gave an IC50 at horse spleen apoferritin of 155 µM. The same compound came in with a dissociation constant Kd on apoferritin of 284 µM.
With `O=Nc1ccc2oc(=O)ccc2c1` [N-8403, 6-Nitroso-1,2-benopyrone], the half-maximal inhibitory concentration (IC50) at horse spleen apoferritin (setting [1]) is 107 µM. Also, the Kd at apoferritin came out at 37.9 µM.
As to `C=C1C(=O)O[C@H]2[C@H]1CC/C(C)=C/CC[C@@]1(C)O[C@@H]21` [P-0667, Parthenolide], at horse spleen apoferritin (setting [1]), the IC50 was found to be 68 µM. At apoferritin, this compound gave a dissociation constant (Kd) of 35.9 µM.
On to `COc1ccc2c(c1)/C(=C/c1cnc[nH]1)C(=O)N2` [S-1693, SU 9516], for which, on horse spleen apoferritin, the inhibition at 77 µM is roughly 30%. For the same compound, the half-inhibitory concentration (IC50) on horse spleen apoferritin (setting [1]) was found to be 88 µM. Also, on apoferritin, the “ITC evidence of binding (in words)” value is on record as “failed to provide convincing evidence of binding”.
As for `Oc1ccc(C2CNCc3sccc32)cc1O` (stereo not drawn) [S-3066, SKF-89626 hydrobromide], the inhibition at 77 µM on horse spleen apoferritin was roughly 30%. At apoferritin, the “ITC evidence of binding (in words)” value is listed as “does not; also recorded: failed to provide convincing evidence of binding”.
Turning to `Cc1ccc(O)c(/N=N/c2ccccc2)n1` [S-9186, SIB 1757], the concentration for half-maximal inhibition (IC50) on horse spleen apoferritin (setting [1]) worked out at 42 µM.
Consider `CCSC(=N)Nc1ccc(C(F)(F)F)cc1` [T7188, TFPI hydrochloride], for which the IC50 on horse spleen apoferritin (setting [1]) is 98 µM. The affinity on apoferritin, expressed as Kd, was 25.3 µM.
`N#C/C(=C\c1ccc(O)c(O)c1)C(N)=S` [T-7540, Tyrphostin 47]: the half-inhibitory concentration (IC50) on horse spleen apoferritin (setting [1]) is 219 µM. Further, binding at apoferritin was put at a Kd of 189 µM.
On to `S=C([S-])OC1CC2CC1C1CCCC21.[K+]` (stereo not drawn) [T-8543, O-Tricyclo[5.2.1.0^2,6]dec-9-yl dithiocarbonate potassium salt], for which the half-maximal inhibitory concentration (IC50) on horse spleen apoferritin (setting [1]) worked out at 16 µM. At apoferritin, the affinity, expressed as Kd, was 12.3 µM and the “ITC evidence of binding (in words)” value is listed as “clear exothermic binding behavior”.
On to `Cc1cc(C(C)(C)C)cc(C)c1CC1=NCCN1` [X-6000, Xylometazoline hydrochloride], for which the IC50 at horse spleen apoferritin was 167 µM. The same compound had a Kd at apoferritin of 177 µM.

Source of the values: publication PMC2746312, “A High-Throughput Approach for Identification of Novel General Anesthetics” (PLoS ONE, 2009).
